Experimental data published in US20040063165A1, “Light-activated in vitro assay process for luciferase bioluminescence” (priority 2003, published 2004).

How the values were obtained:
[1] = tested on: Firefly luciferase enzyme; settings: 1 millisecond UV pulse, Xenon lamp; pulse power varied 40, 60, 80 mJ per pulse; D-Luciferin the limiting factor
Procedure: In this experiment, caged D-Luciferin was utilized to control the reaction.
Functional D-Luciferin was delivered to the reaction from caged D-Luciferin upon exposure of the reaction components to a pulse of UV light with suitable power.
Firefly luciferase enzyme dissolved in Tricine buffer pH 7.8 (50 mM N-Tris (hydroxymethyl) methylglycine) adjusted with NaOH, supplied by Kikkoman Catalog LUC T
5 mM Mg citrate in PBS, pH 7.4-
100 mM ATP solution, pH 7.5 (Amersham Pharmacia, Catalog No. 272056).
In a total reaction volume of 25 μL, the following components were added as solutions to a suitable cell:
10 μL of luciferase solution
5 μL of 5 mM Mg citrate in PBS
5 μL of 1 mM ATP solution
5 μL caged D-Luciferin solution.
The cell with the components was exposed to a pulse of UV (1 millisecond_pulse by a Xenon Lamp, Rapp Optoelectronic). The power of the UV pulse was varied (40, 60, 80 mJ per pulse).

luciferase = assay: UV uncaging of caged ATP to trigger luciferase chemiluminescent reaction (Example 1); format: biochemical; settings: 1 millisecond UV pulse, Xenon lamp; pulse power varied 40, 60, 80 mJ per pulse; ATP the limiting factor
Procedure: In this experiment, caged ATP was utilized to control the reaction. […] Reagents:
Lyophilized luciferase/lyophilized D-Luciferin were dissolved in Tricine buffer [50 mM N-tris(hydroxymethyl)methylglycine, adjusted with NaOH to pH 7.8, Lot 1418] both supplied by Kikkoman as assay kit, CheckLite HS Plus, Catalog # 60342).
5 mM Mg citrate in phosphate buffered saline (PBS, pH 7.4)
Caged ATP (p-(1-(4,5-dimethoxy-2-nitrophenyl)ether, disodium salt-caged adenosine-5-triphosphate) in methanol, 5 mg in 300 μL (Molecular probes, Catalog # A-1049).
In a total reaction volume of 20 μL, the following were mixed in a suitable reaction cell
10 μL of Luciferase/D-Luciferin solution mix,
5 μL of 5 mM Mg Citrate in PBS
5 μL of caged ATP solution.

| Compound | amount of light released from the reaction [1] | amount of light released from the reaction (luciferase) |
| --- | --- | --- |
| 1-(4,5-dimethoxy-2-nitrophenyl)ethyl ester—caged D-luciferin | increased with the increase of the UV pulse power |  |
| COc1cc(C(C)OP(=O)([O-])OP(=O)(O)OP(=O)([O-])OCC2OC(n3cnc4c(N)ncnc43)C(O)C2O)c([N+](=O)[O-])cc1OC.[Na+].[Na+] (centres unmarked) [caged ATP, p-(1-(4,5-dimethoxy-2-nitrophenyl)ether, disodium salt-cagedadenosine-5-triphosphate)] |  | increased with the increase of the UV pulse power |
